Results from ChEMBL document CHEMBL1137822 (J Med Chem, 2004).

Columns and labels:
Acetylcholinesterase = Acetylcholinesterase (Homo sapiens, UniProt P22303); test: Inhibitory concentration against human serum acetylcholinesterase activity
Cholinesterase = Cholinesterase (Homo sapiens, UniProt P06276); test: Inhibitory concentration against human serum butyrylcholinesterase activity
Chain of Cholinesterase (P06276 whole entry): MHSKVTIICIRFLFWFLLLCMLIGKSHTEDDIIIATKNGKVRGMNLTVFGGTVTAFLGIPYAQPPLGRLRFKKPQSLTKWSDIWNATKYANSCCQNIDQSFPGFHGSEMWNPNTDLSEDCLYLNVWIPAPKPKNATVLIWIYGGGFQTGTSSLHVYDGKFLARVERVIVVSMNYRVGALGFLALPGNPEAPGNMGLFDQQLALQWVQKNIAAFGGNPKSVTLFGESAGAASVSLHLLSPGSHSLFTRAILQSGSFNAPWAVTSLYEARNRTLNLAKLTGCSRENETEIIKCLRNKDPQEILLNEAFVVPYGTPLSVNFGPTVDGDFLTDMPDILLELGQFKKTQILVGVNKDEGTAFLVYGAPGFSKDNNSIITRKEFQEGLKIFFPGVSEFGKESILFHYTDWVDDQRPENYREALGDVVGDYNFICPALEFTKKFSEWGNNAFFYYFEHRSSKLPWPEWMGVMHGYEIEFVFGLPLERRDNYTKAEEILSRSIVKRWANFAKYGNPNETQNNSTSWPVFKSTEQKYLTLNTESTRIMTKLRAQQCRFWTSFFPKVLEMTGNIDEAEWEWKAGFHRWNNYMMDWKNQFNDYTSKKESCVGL

Chain of Acetylcholinesterase (P22303 whole entry): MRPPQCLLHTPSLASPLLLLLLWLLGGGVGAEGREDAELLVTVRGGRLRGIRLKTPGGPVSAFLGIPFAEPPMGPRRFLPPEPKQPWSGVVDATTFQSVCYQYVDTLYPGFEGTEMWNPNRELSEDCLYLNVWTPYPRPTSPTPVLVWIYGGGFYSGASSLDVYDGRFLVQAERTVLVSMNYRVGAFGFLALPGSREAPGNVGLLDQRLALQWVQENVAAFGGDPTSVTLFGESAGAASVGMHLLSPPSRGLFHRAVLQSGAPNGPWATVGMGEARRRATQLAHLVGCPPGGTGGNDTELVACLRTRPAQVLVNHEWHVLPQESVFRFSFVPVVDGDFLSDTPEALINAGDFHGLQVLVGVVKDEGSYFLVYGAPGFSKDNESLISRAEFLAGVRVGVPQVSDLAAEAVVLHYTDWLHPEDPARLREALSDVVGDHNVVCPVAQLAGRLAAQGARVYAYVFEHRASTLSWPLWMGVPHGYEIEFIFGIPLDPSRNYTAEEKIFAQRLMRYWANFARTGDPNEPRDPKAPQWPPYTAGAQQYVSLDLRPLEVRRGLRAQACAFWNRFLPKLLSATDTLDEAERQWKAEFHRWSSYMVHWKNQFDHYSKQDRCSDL

CNC(=O)Oc1cccc2c1SCC1CCN(C)C21 (centres undefined)
IC50 (Acetylcholinesterase): 8.11 nM
IC50 (Cholinesterase): 10.5 nM

CNC(=O)Oc1cccc2c1OCC1CCN(C)C21 (centres undefined)
IC50 (Acetylcholinesterase): 30 nM
IC50 (Cholinesterase): 59.4 nM

CCNC(=O)Oc1cccc2c1CCC1CCN(C)C21 (centres undefined)
IC50 (Acetylcholinesterase): 393 nM
IC50 (Cholinesterase): 30.3 nM

CCCCCCCNC(=O)Oc1cccc2c1OCC1CCN(C)C21 (centres undefined)
IC50 (Acetylcholinesterase): 20.3 nM
IC50 (Cholinesterase): 1.26 nM

CC(NC(=O)Oc1cccc2c1OCC1CCN(C)C21)c1ccccc1 (centres undefined)
IC50 (Cholinesterase): 209 nM

CNC(=O)Oc1cccc(C(C)N(C)C)c1 (centres undefined)
IC50 (Cholinesterase): 406 nM

CCNC(=O)Oc1cccc2c1OCC1CCN(C)C21 (centres undefined)
IC50 (Acetylcholinesterase): 420 nM
IC50 (Cholinesterase): 44.4 nM

CNC(=O)Oc1cccc2c1CCC1CCN(C)C21 (centres undefined)
IC50 (Acetylcholinesterase): 17.3 nM
IC50 (Cholinesterase): 24.5 nM
